Measured values as given in US20230226003A1, “NATURAL ANTIBACTERIAL AND ANTIVIRAL BIOLOGICAL COMPOSITIONS, COMPOUNDS, METHOD FOR OBTAINING SAME, AND USE THEREOF” (BEEOTEC HOLDING S/A, priority 2020, published 2023).

Test system: microorganisms on surfaces of a surgical center
Experiment: Efficiency of disinfectants: reduction of microbial counts on surgical center surfaces
Details: post- vs pre-disinfection; same letter = no significant difference (p < 0.05)

Structure (SMILES)	Reduction of counts microbial (%)
OCl [0.5% sodium hypochlorite, sodium hypochlorite]	61 b %
CC(C)O [70% isopropanol, isopropyl alcohol]	87 a %
